# What was measured:
# [1] = tested on: reticulo-endothelial system; assay: Phagocytic activity of the reticulo-endothelial system, carbon clearance (HALPERN); format: in vivo, rabbit; details: 1 g/kg
# Excerpt: That technique is based on the study of the kinetics of the disappearance in the blood of particles of carbon injected into the vein. The kinetics of disappearance follow the equation [formula] in which formula C1 is the concentration of carbon in the blood at time T1 and C2 is the concentration of carbon in the blood at time T2, K being a constant. The constant K, called phagocytic index, represents the phagocytic activity of the cells of the reticule-endothelial system under the experimental conditions. For the tests, the technique and carbon suspension described by […]. Physiol. of Paris, Vol. 50, p. […] The study was done on rabbits of the same stock, male or female, or an average weight of about 2.5 kg, devided into four batches of four animals each. The first batch was used as controls and received, by slow intravenous injection, 10 ml of a 0.8% solution of sodium chloride ten minutes before the injection of 4 mg of carbon per 100 g of animal. […] In all the tests, a total volume of 10 ml was injected with a fairly closely related injection speed (less than five minutes).
# rats [2] = assay: Toxicity, intraperitoneal injection in rats
# [3] = tested on: hepatic and renal circulation
# [4] = tested on: erythrocytic aggregation of the microcirculation (sludge); assay: Erythrocytic aggregation of the microcirculation (sludge), mesenteric circulation of the rabbit; format: in vivo; details: independent of the experimental cause of sludge
# Protocol: This phenomenon was observed by using the technique developed by […] and BRUE (Agressologie, Vol. 4, No. 3, p. 299 ff of 1963): it entails a microscopic observation of the mesenteric circulation of the rabbit. […] The hemorrhagic shock was obtained by the […] method. The perfusion of adrenalin was carried out at a dose of 10 mg/kg/min. for 10 to 15 minutes. The perfusion of lactate was effected at a dose of 0.39 g/min for 15 minutes. The perfusion of ethyl alcohol (in a 20% aqueous solution) was carried out at a dose of 20 ml of solution (i.e. 4 ml of absolute alcohol) for 15 minutes.
# [5] = Tolerance, intraperitoneal route, rabbits; details: rabbit, in vivo, ip, single dose, read-out: tolerated single dose
# Excerpt: Rabbits tolerate a single dose of 8 g/kg by the intraperitoneal route.
# rats [6] = assay: Toxicity, oral administration in rats; format: in vivo, rat; details: six rats
# [7] = tested on: isolated segment of aorta; assay: Isolated segment of aorta, tonus
# Nitrogen anoxemia = Nitrogen anoxemia in rabbits; format: in vivo, rabbit
# Protocol: (§1) The tests were done on rabbits weighing an average of 2.5 kg. The fastening of the cranial electrodes was done under local anaesthesia with procaine, as was the placing of the catheters in a femoral artery to record the blood pressure. The tracheotomies and tracheal intubations were also done under local anaesthesia using procaine. The temperature was maintained at around 38° C. Three types of anoxemia were investigated; 3. Nitrogen anoxemia: The animal was curarized and artifically ventilated as indicated above. Anoxemia was obtained by connecting a nitrogen gasbag to the air intake of the BEAUDOUIN apparatus; general non-hypercapnic anoxemia occurred. Air was […] seconds. […] A latency of 30 minutes was observed before anoxemia was caused.
# Hypercapnic anoxemia = Hypercapnic anoxemia in rabbits; format: in vivo, rabbit
# Protocol: as §1, with “investigated; 2. Hypercapnic anoxemia: The above-mentioned artificial ventilation of the animal after curarization was stopped. Stopping of the cerebral electrogenesis was obtained after an average of 120 seconds.” for “investigated;”
# [8] = 1 g/kg intravenously, prior perfusion
smiles,measurement,setting,value
O=C(CO)CO [dihydroxyacetone],speed of purification of the carbon particles with respect to control animals,"[1]; 10 minutes before lactic acid 0.9 g/kg, FIG. 6",considerably increases
same,speed at which the carbon particles disappear with respect to control animals,[1]; FIG. 5,practically no change
same,"animals died, repeated injection every 2 hours","rats [2]; 4.5 g/kg every 2 hours, third group of 5 rats",3 animals
same,maximum non-lethal dose,"rats [2]; intraperitoneal injection, rats",about 7.50 g/kg
same,blood CO2 pressure,[3]; in vivo,stable
same,blood pH without neutralisation of the solution,[3]; in vivo,a slight fall in the blood pH
same,average pressure and pulse pressure,[3]; intravenous perfusion of 2 g/kg,A slight increase in the average pressure and a widening of the pulse pressure
same,hepatic and renal flows,"[3]; rapid perfusion, 1 g/kg",variably increased
same,hepatic flow,"[3]; rapid perfusion, 1 g/kg",nearly doubled
same,intravascular aggregation (sludge),[4],caused the intravascular aggregation to disappear
same,mesenteric capillary circulation,[4],re-established the mesenteric capilliary circulation
same,MTD,[5],8000 mg/kg
same,animals died at oral dose of 80 g/kg,rats [6],one
same,tonus of an isolated segment of aorta,[7],does not act on the tonus
same,"recuperation latency, nitrogen anoxemia",Nitrogen anoxemia; 1 g/kg intravenously,a slight improvement
same,"recuperation time, nitrogen anoxemia",Nitrogen anoxemia; 1 g/kg intravenously,no improvement
same,"survival time, nitrogen anoxemia",Nitrogen anoxemia; [8],minor
same,blood pressure in nitrogen anoxemia,Nitrogen anoxemia; anoxemia preceded by perfusion of dihydroxyacetone,maintained a high value
same,"recuperation latency, hypercapnic anoxemia",Hypercapnic anoxemia; 1 g/kg intravenously,an improvement which was difficult to measure
same,"survival time, hypercapnic anoxemia",Hypercapnic anoxemia; [8],pronounced
same,"recuperation time, hypercapnic anoxemia","Hypercapnic anoxemia; 1 g/kg intravenously, result in words",a clear improvement
same,"recuperation time, hypercapnic anoxemia",Hypercapnic anoxemia; for 2 minutes of anoxemia,≤ 30 s

# — patent US4049795A, “Treatment of hemorrhagic shock” (priority 1974, dated 1977)
